Paper PMC7156458, “Synthetic biology based construction of biological activity-related library of fungal decalin-containing diterpenoid pyrones” (Nature Communications, 2020)

Biological target: Aβ42 (Homo sapiens, UniProt P05067)
Assay: Th-T (thioflavin-T) assay of Aβ42 aggregation
Type: biochemical
Settings: for Th-T fluorescence of Aβ42 (sheet Fig. 7a), mean of three wells: head suffix _50 (concentration 50); for Th-T assay plate reading, mean of three wells (Supplementary Fig. 47): source data, Ab alone and No Ab as controls; for Th-T fluorescence, mean of three wells: Supplementary Fig. 47 source data

Chain of Aβ42 (P05067 672-713): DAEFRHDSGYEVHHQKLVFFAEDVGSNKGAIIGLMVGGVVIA

## C=C1CCC2C(C)(CCC=C(C)C)C(O)CCC2(C)C1Cc1c(OC)oc(C)c(C(=O)OC)c1=O (stereo not drawn) [Compound 14]
Reading M73
  Th-T fluorescence of Aβ42 (sheet Fig. 7a), mean of three wells: 2.8491
Reading M74
  Th-T fluorescence of Aβ42 (sheet Fig. 7a), mean of three wells: 2.743
Reading M75
  Th-T fluorescence of Aβ42 (sheet Fig. 7a), mean of three wells: 2.678
Reading M76
  Th-T fluorescence of Aβ42 (sheet Fig. 7a), mean of three wells: 2.6047
Reading M77
  Th-T fluorescence of Aβ42 (sheet Fig. 7a), mean of three wells: 2.524
Reading M78
  Th-T fluorescence of Aβ42 (sheet Fig. 7a), mean of three wells: 2.476
Reading M79
  Th-T fluorescence of Aβ42 (sheet Fig. 7a), mean of three wells: 2.356
Reading M80
  Th-T fluorescence of Aβ42 (sheet Fig. 7a), mean of three wells: 2.329
Reading M81
  Th-T fluorescence of Aβ42 (sheet Fig. 7a), mean of three wells: 2.257
Reading M82
  Th-T fluorescence of Aβ42 (sheet Fig. 7a), mean of three wells: 2.201
Reading M83
  Th-T fluorescence of Aβ42 (sheet Fig. 7a), mean of three wells: 2.154
Reading M84
  Th-T fluorescence of Aβ42 (sheet Fig. 7a), mean of three wells: 2.095
Measurement M1
  Th-T assay plate reading, mean of three wells (Supplementary Fig. 47): 0.2816
Measurement M2
  Th-T assay plate reading, mean of three wells (Supplementary Fig. 47): 0.2424
Measurement M3
  Th-T assay plate reading, mean of three wells (Supplementary Fig. 47): 0.24
Measurement M4
  Th-T assay plate reading, mean of three wells (Supplementary Fig. 47): 0.2537
Measurement M5
  Th-T assay plate reading, mean of three wells (Supplementary Fig. 47): 0.2619
Measurement M6
  Th-T assay plate reading, mean of three wells (Supplementary Fig. 47): 0.2823
Measurement M7
  Th-T assay plate reading, mean of three wells (Supplementary Fig. 47): 0.2966
Measurement M8
  Th-T assay plate reading, mean of three wells (Supplementary Fig. 47): 0.3078
Measurement M9
  Th-T assay plate reading, mean of three wells (Supplementary Fig. 47): 0.3225
Measurement M10
  Th-T assay plate reading, mean of three wells (Supplementary Fig. 47): 0.3472
Measurement M11
  Th-T assay plate reading, mean of three wells (Supplementary Fig. 47): 0.3856
Measurement M12
  Th-T assay plate reading, mean of three wells (Supplementary Fig. 47): 0.4563
Measurement M13
  Th-T assay plate reading, mean of three wells (Supplementary Fig. 47): 0.5559
Measurement M14
  Th-T assay plate reading, mean of three wells (Supplementary Fig. 47): 0.6968
Measurement M15
  Th-T assay plate reading, mean of three wells (Supplementary Fig. 47): 0.8869
Measurement M16
  Th-T assay plate reading, mean of three wells (Supplementary Fig. 47): 1.062
Reading M107, compound at 10 (head suffix _10)
  Th-T fluorescence, mean of three wells (Fig. 7a): 2.856
Reading M107, compound at 20 (head suffix _20)
  Th-T fluorescence, mean of three wells (Fig. 7a): 1.717
Reading M107, compound at 50 (head suffix _50)
  Th-T fluorescence, mean of three wells (Fig. 7a): 1.263
Reading M108, compound at 10 (head suffix _10)
  Th-T fluorescence, mean of three wells (Fig. 7a): 2.848
Reading M108, compound at 20 (head suffix _20)
  Th-T fluorescence, mean of three wells (Fig. 7a): 1.693
Reading M108, compound at 50 (head suffix _50)
  Th-T fluorescence, mean of three wells (Fig. 7a): 1.239
Reading M109, compound at 10 (head suffix _10)
  Th-T fluorescence, mean of three wells (Fig. 7a): 2.86
Reading M109, compound at 20 (head suffix _20)
  Th-T fluorescence, mean of three wells (Fig. 7a): 1.668
Reading M109, compound at 50 (head suffix _50)
  Th-T fluorescence, mean of three wells (Fig. 7a): 1.221
Reading M110, compound at 10 (head suffix _10)
  Th-T fluorescence, mean of three wells (Fig. 7a): 2.89
Reading M110, compound at 20 (head suffix _20)
  Th-T fluorescence, mean of three wells (Fig. 7a): 1.691
Reading M110, compound at 50 (head suffix _50)
  Th-T fluorescence, mean of three wells (Fig. 7a): 1.198
Reading M111, compound at 10 (head suffix _10)
  Th-T fluorescence, mean of three wells (Fig. 7a): 2.887
Reading M111, compound at 20 (head suffix _20)
  Th-T fluorescence, mean of three wells (Fig. 7a): 1.674
Reading M111, compound at 50 (head suffix _50)
  Th-T fluorescence, mean of three wells (Fig. 7a): 1.171
Reading M112, compound at 10 (head suffix _10)
  Th-T fluorescence, mean of three wells (Fig. 7a): 2.867
Reading M112, compound at 20 (head suffix _20)
  Th-T fluorescence, mean of three wells (Fig. 7a): 1.668
Reading M112, compound at 50 (head suffix _50)
  Th-T fluorescence, mean of three wells (Fig. 7a): 1.153
Reading M113, compound at 10 (head suffix _10)
  Th-T fluorescence, mean of three wells (Fig. 7a): 2.843
Reading M113, compound at 20 (head suffix _20)
  Th-T fluorescence, mean of three wells (Fig. 7a): 1.686
Reading M113, compound at 50 (head suffix _50)
  Th-T fluorescence, mean of three wells (Fig. 7a): 1.142
Reading M114, compound at 10 (head suffix _10)
  Th-T fluorescence, mean of three wells (Fig. 7a): 2.88
Reading M114, compound at 20 (head suffix _20)
  Th-T fluorescence, mean of three wells (Fig. 7a): 1.678
Reading M114, compound at 50 (head suffix _50)
  Th-T fluorescence, mean of three wells (Fig. 7a): 1.107
Reading M115, compound at 10 (head suffix _10)
  Th-T fluorescence, mean of three wells (Fig. 7a): 2.899
Reading M115, compound at 20 (head suffix _20)
  Th-T fluorescence, mean of three wells (Fig. 7a): 1.649
Reading M115, compound at 50 (head suffix _50)
  Th-T fluorescence, mean of three wells (Fig. 7a): 1.096
Reading M116, compound at 10 (head suffix _10)
  Th-T fluorescence, mean of three wells (Fig. 7a): 2.891
Reading M116, compound at 20 (head suffix _20)
  Th-T fluorescence, mean of three wells (Fig. 7a): 1.656
Reading M116, compound at 50 (head suffix _50)
  Th-T fluorescence, mean of three wells (Fig. 7a): 1.094
Reading M117, compound at 10 (head suffix _10)
  Th-T fluorescence, mean of three wells (Fig. 7a): 2.891
Reading M117, compound at 20 (head suffix _20)
  Th-T fluorescence, mean of three wells (Fig. 7a): 1.6485
Reading M117, compound at 50 (head suffix _50)
  Th-T fluorescence, mean of three wells (Fig. 7a): 1.063
Reading M118, compound at 10 (head suffix _10)
  Th-T fluorescence, mean of three wells (Fig. 7a): 2.882
Reading M118, compound at 20 (head suffix _20)
  Th-T fluorescence, mean of three wells (Fig. 7a): 1.636
Reading M118, compound at 50 (head suffix _50)
  Th-T fluorescence, mean of three wells (Fig. 7a): 1.027
Reading M119, compound at 10 (head suffix _10)
  Th-T fluorescence, mean of three wells (Fig. 7a): 2.895
Reading M119, compound at 20 (head suffix _20)
  Th-T fluorescence, mean of three wells (Fig. 7a): 1.645
Reading M119, compound at 50 (head suffix _50)
  Th-T fluorescence, mean of three wells (Fig. 7a): 1.02
Reading M120, compound at 10 (head suffix _10)
  Th-T fluorescence, mean of three wells (Fig. 7a): 2.912
Reading M120, compound at 20 (head suffix _20)
  Th-T fluorescence, mean of three wells (Fig. 7a): 1.644
Reading M120, compound at 50 (head suffix _50)
  Th-T fluorescence, mean of three wells (Fig. 7a): 1.015
Reading M121, compound at 10 (head suffix _10)
  Th-T fluorescence, mean of three wells (Fig. 7a): 2.89
Reading M121, compound at 20 (head suffix _20)
  Th-T fluorescence, mean of three wells (Fig. 7a): 1.621
Reading M121, compound at 50 (head suffix _50)
  Th-T fluorescence, mean of three wells (Fig. 7a): 1.008
Reading M122, compound at 10 (head suffix _10)
  Th-T fluorescence, mean of three wells (Fig. 7a): 2.911
Reading M122, compound at 20 (head suffix _20)
  Th-T fluorescence, mean of three wells (Fig. 7a): 1.5939
Reading M122, compound at 50 (head suffix _50)
  Th-T fluorescence, mean of three wells (Fig. 7a): 0.9934
Reading M123, compound at 10 (head suffix _10)
  Th-T fluorescence, mean of three wells (Fig. 7a): 2.8989
Reading M123, compound at 20 (head suffix _20)
  Th-T fluorescence, mean of three wells (Fig. 7a): 1.589
Reading M123, compound at 50 (head suffix _50)
  Th-T fluorescence, mean of three wells (Fig. 7a): 0.9605
Reading M124, compound at 10 (head suffix _10)
  Th-T fluorescence, mean of three wells (Fig. 7a): 2.906
Reading M124, compound at 20 (head suffix _20)
  Th-T fluorescence, mean of three wells (Fig. 7a): 1.657
Reading M124, compound at 50 (head suffix _50)
  Th-T fluorescence, mean of three wells (Fig. 7a): 0.9345
Reading M125, compound at 10 (head suffix _10)
  Th-T fluorescence, mean of three wells (Fig. 7a): 2.918
Reading M125, compound at 20 (head suffix _20)
  Th-T fluorescence, mean of three wells (Fig. 7a): 1.601
Reading M125, compound at 50 (head suffix _50)
  Th-T fluorescence, mean of three wells (Fig. 7a): 0.9471
Reading M126, compound at 10 (head suffix _10)
  Th-T fluorescence, mean of three wells (Fig. 7a): 2.913
Reading M126, compound at 20 (head suffix _20)
  Th-T fluorescence, mean of three wells (Fig. 7a): 1.6231
Reading M126, compound at 50 (head suffix _50)
  Th-T fluorescence, mean of three wells (Fig. 7a): 0.9219
Reading M127, compound at 10 (head suffix _10)
  Th-T fluorescence, mean of three wells (Fig. 7a): 2.92
Reading M127, compound at 20 (head suffix _20)
  Th-T fluorescence, mean of three wells (Fig. 7a): 1.639
Reading M127, compound at 50 (head suffix _50)
  Th-T fluorescence, mean of three wells (Fig. 7a): 0.9074
Reading M128, compound at 10 (head suffix _10)
  Th-T fluorescence, mean of three wells (Fig. 7a): 2.916
Reading M128, compound at 20 (head suffix _20)
  Th-T fluorescence, mean of three wells (Fig. 7a): 1.631
Reading M128, compound at 50 (head suffix _50)
  Th-T fluorescence, mean of three wells (Fig. 7a): 0.8816
time-course reading M97
  Th-T fluorescence, mean of three wells: 1.587
time-course reading M98
  Th-T fluorescence, mean of three wells: 1.593
time-course reading M99
  Th-T fluorescence, mean of three wells: 1.591
time-course reading M100
  Th-T fluorescence, mean of three wells: 1.596
time-course reading M101
  Th-T fluorescence, mean of three wells: 1.605
time-course reading M102
  Th-T fluorescence, mean of three wells: 1.603
time-course reading M103
  Th-T fluorescence, mean of three wells: 1.613
time-course reading M104
  Th-T fluorescence, mean of three wells: 1.605
time-course reading M105
  Th-T fluorescence, mean of three wells: 1.614
time-course reading M106
  Th-T fluorescence, mean of three wells: 1.61
time-course reading M107
  Th-T fluorescence, mean of three wells: 1.627
time-course reading M108
  Th-T fluorescence, mean of three wells: 1.622
time-course reading M109
  Th-T fluorescence, mean of three wells: 1.637
time-course reading M110
  Th-T fluorescence, mean of three wells: 1.6366
time-course reading M111
  Th-T fluorescence, mean of three wells: 1.648
time-course reading M112
  Th-T fluorescence, mean of three wells: 1.658
time-course reading M113
  Th-T fluorescence, mean of three wells: 1.641
time-course reading M114
  Th-T fluorescence, mean of three wells: 1.648
time-course reading M115
  Th-T fluorescence, mean of three wells: 1.646
time-course reading M116
  Th-T fluorescence, mean of three wells: 1.651
